How the values were obtained:
[1] = test system: PDX model CS264; assay: Colorectal cancer PDX transplantation tumor model; type: in vivo, nude mice or NOD/SCID mice; details: day 32 after administration; CTB006 10 mg/kg iv qd, Ponatinib 30 mg/kg p.o qd
Description: (§4) To test the in vivo pharmacodynamic efficacy of CTB006 in combination with Ponatinib, several tumor animal models were selected for testing, including pancreatic cancer cells MIA-PACA-2 CDX model and multiple PDX models covering multiple cancers of intestinal cancer (CS237, CS263, CS264), lung cancer (CS225), and gastric cancer (CS266, GAS033). For mathematical statistics, ANOVA analysis was used, and P<0.05 indicates a statistically significant difference and is marked with *; P<0.01 indicates a highly significant statistical difference and is marked with **.
(§5) Patient-derived transplantation tumor models were established subcutaneously in nude mice or NOD/SCID mice, which was administered with CTB006 alone (10 mg/kg, iv, qd), Ponatinib alone (30 mg/kg, p.o, qd) the combination of them, while the control group was given an equal volume of saline.

[2] = test system: PDX model CS266; assay: Gastric cancer PDX transplantation tumor model; details: day 31; CTB006 10 mg/kg iv qd, Ponatinib 30 mg/kg p.o qd
Description: To test the in vivo pharmacodynamic efficacy of CTB006 in combination with Ponatinib, several tumor animal models were selected for testing, including pancreatic cancer cells MIA-PACA-2 CDX model and multiple PDX models covering multiple cancers of intestinal cancer (CS237, CS263, CS264), lung cancer (CS225), and gastric cancer (CS266, GAS033).
as §5
At day 31 after administration, when the mean tumor volume of the negative control group and CTB006 alone group reached 1 cm^3, the negative control group was sacrificed, and the administration was stopped for 5-Fu positive control group, Ponatinib alone group and the combination group and the observation continued.

[3] = test system: S2VP10 cells; assay: Tumor cell survival by ATPlite after 24 h incubation; CDI; type: cell-based; details: for CDI: DR5 agonist in combination with Ponatinib
Description: (§1) The interaction between CTB006 antibody and Ponatinib: we used coefficient of drug interaction (CDI)^[1,2] to evaluate the combined effect of CTB006 antibody and chemotherapeutic drugs. CDI was calculated according to the following formula: CDI=AB/A×B; AB was the ratio of the detection values of the two-drug combination group to the control group (survival rate of the drug combination group), and A or B was the ratio of the detection values of each individual drug to the control group (survival rate of the drug alone group).
(§2) The survival of each tumor cell was observed by ATPlite method after incubation at 37° C., 5% CO2 for 24 h.
(§3) Methods were as described above.

[4] = test system: A549 cells; assay: as above; type: cell-based; details: for CDI: DR5 agonist in combination with Ponatinib
Description: as §1, §2, §3

[5] = test system: MCF-7 cells; assay: as above; type: cell-based; details: for CDI: DR5 agonist in combination with Ponatinib
Description: as §1, §2, §3

[6] = test system: PDX model CS263; assay: Colorectal cancer PDX transplantation tumor model
Description: as §4, §5

[7] = test system: MIA-Paca-2 transplanted tumor; assay: Pancreatic cancer CDX model, subcutaneous transplantation; details: CTB006 10 mg/kg iv qw, Ponatinib 30 mg/kg p.o qd, alone or in combination, 22 days; euthanized at tumor volume 1 cm^3
Description: The CDX model was established by subcutaneous transplantation of MIA-Paca-2 in BALB/c nude mice (Vital River), and drug administration was started when the tumor volume was about 0.1 cm^3, and when it reached 1 cm^3, the animals were ethically euthanized and survival time was recorded. CTB006 (10 mg/kg, iv, qw) and Ponatinib (30 mg/kg, p.o, qd) were administered alone or in combination for treatment groups, and the control group was administered an equal volume of saline.

[8] = test system: PDX model CS237; assay: Colorectal cancer PDX transplantation tumor model; type: in vivo, nude mice or NOD/SCID mice; details: day 52 after administration; CTB006 10 mg/kg iv qd, Ponatinib 30 mg/kg p.o qd
Description: as §4, §5

[9] = test system: PDX model GAS033; assay: Gastric cancer PDX transplantation tumor model; type: in vivo, nude mice or NOD/SCID mice; details: day 16 after administration; CTB006 10 mg/kg iv qd, Ponatinib 30 mg/kg p.o qd
Description: as §4, §5

[10] = test system: SGC-7901 cells; assay: Tumor cell survival by ATPlite after 24 h incubation; CDI; type: cell-based
Description: as §1, §2

[11] = test system: SK-HEP-1 cells; assay: as above; type: cell-based
Description: as §1, §2

[12] = test system: N87 cells; assay: as above; type: cell-based
Description: as §1, §2

[13] = test system: TE1 cells; assay: as above; type: cell-based
Description: as §1, §2

[14] = test system: S2Lm7AA cells; assay: as above; type: cell-based
Description: as §1, §2

[15] = test system: HT29 cells; assay: as above; type: cell-based
Description: as §1, §2

[16] = test system: Huh-1 cells; assay: as above; type: cell-based
Description: as §1, §2

[17] = test system: primary tumor cells S1; assay: Killing of primary tumor cells from ovarian cancer ascites; CDI; type: cell-based
Description: as §1, §2

[18] = test system: primary tumor cells S2; assay: as above; type: cell-based
Description: as §1, §2

[19] = test system: PDX model CS225; assay: Lung cancer PDX transplantation tumor model; type: in vivo, nude mice or NOD/SCID mice; details: day 28 after administration; CTB006 10 mg/kg iv qd, Ponatinib 30 mg/kg p.o qd
Description: as §4, §5

Cc1ccc(C(=O)Nc2ccc(CN3CCN(C)CC3)c(C(F)(F)F)c2)cc1C#Cc1cnc2cccnn12 [Ponatinib]
tumor inhibition rates (TGI) [1]: 32.4% | tumor inhibition rates (TGI) [2]: 87.7% | Survival Rate (%) ([3]; Ponatinib alone 15.625 nM): 98.02% | Survival Rate (%) ([3]; Ponatinib alone 31.25 nM): 97.47% | Survival Rate (%) ([3]; Ponatinib alone 62.5 nM): 99.87% | Survival Rate (%) ([3]; Ponatinib alone 125 nM): 96.84% | Survival Rate (%) ([3]; Ponatinib alone 250 nM): 87.54% | Survival Rate (%) ([3]; Ponatinib alone 500 nM): 75.12% | Survival Rate (%) ([3]; Ponatinib alone 1000 nM): 69.06% | Survival Rate (%) ([4]; Ponatinib alone 15.625 nM): 101.54% | Survival Rate (%) ([4]; Ponatinib alone 31.25 nM): 106.99% | Survival Rate (%) ([4]; Ponatinib alone 62.5 nM): 105.05% | Survival Rate (%) ([4]; Ponatinib alone 125 nM): 107.07% | Survival Rate (%) ([4]; Ponatinib alone 250 nM): 104.14% | Survival Rate (%) ([4]; Ponatinib alone 500 nM): 93.76% | Survival Rate (%) ([4]; Ponatinib alone 1000 nM): 81.32% | Survival Rate (%) ([5]; Ponatinib alone 15.625 nM): 102.70% | Survival Rate (%) ([5]; Ponatinib alone 62.5 nM): 103.26% | Survival Rate (%) ([5]; Ponatinib alone 250 nM): 94.14% | Survival Rate (%) ([5]; Ponatinib alone 1000 nM): 68.81% | tumor inhibition rates (TGI) ([6]; day 44 after administration, CTB006 10 mg/kg iv qd, Ponatinib 30 mg/kg p.o qd): 45.3% | median survival ([6]; time to reach the mean tumor volume of 1.0 cm^3 as cutoff, administration stopped at day 44): 56 days | median survival time [7]: 34.5 days | tumor inhibition rate (TGI) [8]: 43.8% | tumor inhibition rate (TGI) [9]: 37% | Survival Rate (%) ([10]; Ponatinib alone 15.625 nM): 100.08% | Survival Rate (%) ([10]; Ponatinib alone 31.25 nM): 98.30% | Survival Rate (%) ([10]; Ponatinib alone 62.5 nM): 99.90% | Survival Rate (%) ([10]; Ponatinib alone 125 nM): 95.83% | Survival Rate (%) ([10]; Ponatinib alone 250 nM): 86.80% | Survival Rate (%) ([10]; Ponatinib alone 500 nM): 75.77% | Survival Rate (%) ([10]; Ponatinib alone 1000 nM): 61.42% | Survival Rate (%) ([11]; Ponatinib alone 15.625 nM): 95.48% | Survival Rate (%) ([11]; Ponatinib alone 31.25 nM): 92.47% | Survival Rate (%) ([11]; Ponatinib alone 62.5 nM): 92.34% | Survival Rate (%) ([11]; Ponatinib alone 125 nM): 84.53% | Survival Rate (%) ([11]; Ponatinib alone 250 nM): 77.45% | Survival Rate (%) ([11]; Ponatinib alone 500 nM): 68.54% | Survival Rate (%) ([11]; Ponatinib alone 1000 nM): 67.85% | Survival Rate (%) ([12]; Ponatinib alone 15.625 nM): 87.89% | Survival Rate (%) ([12]; Ponatinib alone 31.25 nM): 83.79% | Survival Rate (%) ([12]; Ponatinib alone 62.5 nM): 84.36% | Survival Rate (%) ([12]; Ponatinib alone 125 nM): 83.71% | Survival Rate (%) ([12]; Ponatinib alone 250 nM): 82.65% | Survival Rate (%) ([12]; Ponatinib alone 500 nM): 84.46% | Survival Rate (%) ([12]; Ponatinib alone 1000 nM): 82.19% | Survival Rate (%) ([13]; Ponatinib alone 15.625 nM): 107.94% | Survival Rate (%) ([13]; Ponatinib alone 31.25 nM): 103.25% | Survival Rate (%) ([13]; Ponatinib alone 62.5 nM): 104.04% | Survival Rate (%) ([13]; Ponatinib alone 125 nM): 100.27% | Survival Rate (%) ([13]; Ponatinib alone 250 nM): 97.30% | Survival Rate (%) ([13]; Ponatinib alone 500 nM): 89.97% | Survival Rate (%) ([13]; Ponatinib alone 1000 nM): 73.00% | Survival Rate (%) ([14]; Ponatinib alone 15.625 nM): 90.79% | Survival Rate (%) ([14]; Ponatinib alone 31.25 nM): 90.05% | Survival Rate (%) ([14]; Ponatinib alone 62.5 nM): 85.82% | Survival Rate (%) ([14]; Ponatinib alone 125 nM): 87.89% | Survival Rate (%) ([14]; Ponatinib alone 250 nM): 79.85% | Survival Rate (%) ([14]; Ponatinib alone 500 nM): 76.76% | Survival Rate (%) ([14]; Ponatinib alone 1000 nM): 77.11% | Survival Rate (%) ([15]; Ponatinib alone 15.625 nM): 102.78% | Survival Rate (%) ([15]; Ponatinib alone 31.25 nM): 103.51% | Survival Rate (%) ([15]; Ponatinib alone 62.5 nM): 102.93% | Survival Rate (%) ([15]; Ponatinib alone 125 nM): 95.77% | Survival Rate (%) ([15]; Ponatinib alone 250 nM): 84.39% | Survival Rate (%) ([15]; Ponatinib alone 500 nM): 87.91% | Survival Rate (%) ([15]; Ponatinib alone 1000 nM): 80.77% | Survival Rate (%) ([16]; Ponatinib alone 15.625 nM): 97.49% | Survival Rate (%) ([16]; Ponatinib alone 31.25 nM): 92.59% | Survival Rate (%) ([16]; Ponatinib alone 62.5 nM): 91.15% | Survival Rate (%) ([16]; Ponatinib alone 125 nM): 83.68% | Survival Rate (%) ([16]; Ponatinib alone 250 nM): 79.87% | Survival Rate (%) ([16]; Ponatinib alone 500 nM): 70.61% | Survival Rate (%) ([16]; Ponatinib alone 1000 nM): 64.68% | Survival Rate (%) ([17]; Ponatinib alone 25 nM): 89.60% | Survival Rate (%) ([17]; Ponatinib alone 50 nM): 101.09% | Survival Rate (%) ([17]; Ponatinib alone 100 nM): 85.81% | Survival Rate (%) ([17]; Ponatinib alone 200 nM): 82.23% | Survival Rate (%) ([18]; Ponatinib alone 25 nM): 101.93% | Survival Rate (%) ([18]; Ponatinib alone 50 nM): 109.27% | Survival Rate (%) ([18]; Ponatinib alone 100 nM): 98.46% | Survival Rate (%) ([18]; Ponatinib alone 200 nM): 90.46% | tumor inhibition rates (TGI) [19]: 50%

AMG655: DR5 agonistic monoclonal antibody Conatumumab (AMG655, Amgen)
CDI [3]: 0.8123 | CDI [4]: 0.6362 | CDI [5]: 0.317 | killing effect ([5]; drug alone): significant killing effect | killing effect ([5]; used in combination): more significant

O=c1[nH]cc(F)c(=O)[nH]1 [5-Fu]
tumor inhibition rates (TGI) [1]: 31.2% | tumor inhibition rates (TGI) [2]: 57.5%

CC(=O)O[C@H]1C(=O)[C@@]2(C)[C@H]([C@H](OC(=O)c3ccccc3)[C@]3(O)C[C@H](OC(=O)[C@H](O)[C@@H](NC(=O)c4ccccc4)c4ccccc4)C(C)=C1C3(C)C)[C@]1(OC(C)=O)CO[C@@H]1C[C@@H]2O [Taxol]
tumor inhibition rates (TGI) [19]: 50%

B1: TRAIL: DR5 natural ligand TRAIL (Sino Biological) (protein, UniProt P50591 1-281, looked up)
Tumor necrosis factor ligand …: MAMMEVQGGPSLGQTCVLIVIFTVLLQSLCVAVTYVYFTNELKQMQDKYSKSGIACFLKEDDSYWDPNDEESMNSPCWQVKWQLRQLVRKMILRTSEETISTVQEKQQNISPLVRERGPQRVAAHITGTRGRSNTLSSPNSKNEKALGRKINSWESSRSGHSFLSNLHLRNGELVIHEKGFYYIYSQTYFRFQEEIKENTKNDKQMVQYIYKYTSYPDPILLMKSARNSCWSKDAEYGLYSIYQGGIFELKENDRIFVSVTNEHLIDMDHEASFFGAFLVG
CDI [3]: 0.5179 | CDI [4]: 0.7329 | CDI [5]: 0.3303 | killing effect ([5]; drug alone): did not have a significant killing effect

From patent publication US20230112450A1, “COMBINED USE OF CTB006 AND PONATINIB” (Beijing Sinotau Bio-Pharmaceuticals Technology Co., Ltd., priority 2020, published 2023)
